Data as given in BindingDB's records for PubMed 6310078 (Pfizer, 1983).
Counter-ions that a name gives are not always drawn.

What follows are compounds tested against Sodium-dependent dopamine transporter (Rattus norvegicus, UniProt P23977).
Sodium-dependent dopamine transporter, sequence (P23977 whole entry): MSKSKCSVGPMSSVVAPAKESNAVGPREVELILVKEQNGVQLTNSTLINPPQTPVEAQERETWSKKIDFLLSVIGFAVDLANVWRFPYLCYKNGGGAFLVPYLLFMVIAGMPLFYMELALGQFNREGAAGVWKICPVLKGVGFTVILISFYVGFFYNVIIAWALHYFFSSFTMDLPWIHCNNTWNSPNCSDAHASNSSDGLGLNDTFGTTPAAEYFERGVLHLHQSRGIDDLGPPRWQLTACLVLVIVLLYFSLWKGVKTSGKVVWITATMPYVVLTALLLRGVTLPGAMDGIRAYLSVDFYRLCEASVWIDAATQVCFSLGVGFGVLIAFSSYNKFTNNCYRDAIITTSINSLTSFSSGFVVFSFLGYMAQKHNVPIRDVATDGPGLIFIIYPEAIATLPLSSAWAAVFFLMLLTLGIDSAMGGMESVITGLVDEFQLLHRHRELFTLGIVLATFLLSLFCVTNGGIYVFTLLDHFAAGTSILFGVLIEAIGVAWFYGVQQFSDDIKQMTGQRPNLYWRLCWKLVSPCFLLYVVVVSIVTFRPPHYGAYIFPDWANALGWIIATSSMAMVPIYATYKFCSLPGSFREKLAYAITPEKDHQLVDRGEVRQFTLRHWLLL

Row | SMILES | Ki [µM]
1 | COCCCC/C(=N\OCCN)c1ccc(C(F)(F)F)cc1 [(1E)-5-methoxy-1-[4-(trifluoromethyl)phenyl]pentan-1-one O-(2-aminoethyl)oxime] | > 10
2 | CN(C)CCC=C1c2ccccc2CCc2ccccc21 | > 10
3 | CN(C)C/C=C(/c1ccc(Br)cc1)c1cccnc1 [cis-[3-(4-Bromo-phenyl)-3-pyridin-3-yl-allyl]-dimethyl-amine;HCl] | > 10
4 | CN(C)CCCN1c2ccccc2CCc2ccc(Cl)cc21 [CLOMIPRAMINE HYDROCHLORIDE] | 8.1
5 | N[C@H]1CC[C@@H](c2ccc(Cl)c(Cl)c2)c2ccccc21 | 3.8
6 | CN[C@@H]1CC[C@@H](c2ccccc2)c2ccccc21 | 0.15
7 | CNC/C=C(/c1ccc(Br)cc1)c1cccnc1 | > 10
8 | CNCCC=C1c2ccccc2CCc2ccccc21 [NORTRIPTYLINE] | > 10

The compounds below were run against T1, Muscarinic acetylcholine receptor M2 (Rattus norvegicus, UniProt P10980).
T1 sequence (P10980 whole entry): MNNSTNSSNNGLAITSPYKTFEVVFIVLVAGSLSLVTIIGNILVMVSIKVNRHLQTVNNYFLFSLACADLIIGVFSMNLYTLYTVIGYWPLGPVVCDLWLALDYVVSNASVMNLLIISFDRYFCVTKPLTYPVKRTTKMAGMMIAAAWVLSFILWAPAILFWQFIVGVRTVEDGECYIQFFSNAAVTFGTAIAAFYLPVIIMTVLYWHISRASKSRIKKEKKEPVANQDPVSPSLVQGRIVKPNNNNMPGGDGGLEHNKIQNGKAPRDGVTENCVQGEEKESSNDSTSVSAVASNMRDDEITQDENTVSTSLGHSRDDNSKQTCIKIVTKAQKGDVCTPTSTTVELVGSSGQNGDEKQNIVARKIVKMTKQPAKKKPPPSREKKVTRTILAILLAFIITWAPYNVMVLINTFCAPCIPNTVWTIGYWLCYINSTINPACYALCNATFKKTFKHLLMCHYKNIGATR

Row | Ki [µM] | SMILES
9 | 0.71 | CN(C)CC/C=C1/c2ccccc2COc2ccccc21
10 | 3.5 | CNCCCN1c2ccccc2CCc2ccccc21 [Desmethylimipramine]
11 | > 10 | CN[C@@H]1CC[C@@H](c2ccc(Cl)c(Cl)c2)c2ccccc21 [[4-(3,4-Dichloro-phenyl)-1,2,3,4-tetrahydro-naphthalen-1-yl]-methyl-amine]

Row | SMILES | Ki [µM]
12 | CN(C)CCC=C1c2ccccc2CCc2ccccc21 | 0.32
13 | CN[C@@H]1CC[C@@H](c2ccccc2)c2ccccc21 | 4.7

These compounds were tested against Norepinephrine transporter (Rattus norvegicus, UniProt Q9JIA2).

Row | SMILES | Ki [µM]
14 | COCCCC/C(=N\OCCN)c1ccc(C(F)(F)F)cc1 [(1E)-5-methoxy-1-[4-(trifluoromethyl)phenyl]pentan-1-one O-(2-aminoethyl)oxime] | 1.9
15 | CN(C)CCC=C1c2ccccc2CCc2ccccc21 | 0.13
16 | N[C@H]1CC[C@@H](c2ccc(Cl)c(Cl)c2)c2ccccc21 | 4.6
17 | CN[C@@H]1CC[C@@H](c2ccccc2)c2ccccc21 | 0.018
18 | CNCCC=C1c2ccccc2CCc2ccccc21 [NORTRIPTYLINE] | 0.025
